Laboratory results taken from ChEMBL document CHEMBL3526086, “Identification of the oxidative and conjugative enzymes involved in the biotransformation of brivanib” (Drug Metab Dispos, 2012).

Assays:
Type in all cases: ADME
Cytochrome P450 2E1 [1] = target: T1, Cytochrome P450 2E1 (Homo sapiens, UniProt P05181); assay: Drug metabolism in human liver microsomes assessed as 50 uM diethyldithiocarbamate-mediated inhibition of CYP2E1-mediated (R)-1-(4-(4-fluoro-2-(hydroxymethyl)-1H-indol-5-yloxy)-5-methylpyrrolo[1,2-f][1,2,4]triazin-6-yloxy)propan-2-ol formation at 2 and 20 uM for 30 mins by LC/MS analysis; conditions: 0.5 h
Cytochrome P450 3A4 [2] = target: T2, Cytochrome P450 3A4 (Homo sapiens, UniProt P08684); assay: Drug metabolism assessed as human CYP3A4-mediated (R)-1-(4-(4-fluoro-2-(hydroxymethyl)-1H-indol-5-yloxy)-5-methylpyrrolo[1,2-f][1,2,4]triazin-6-yloxy)propan-2-ol formation at 2 and 20 uM for 20 mins by LC/MS analysis in presence of NADPH; conditions: recombinant enzyme
Cytochrome P450 3A5 = Cytochrome P450 3A5 (Homo sapiens, UniProt P20815); assay: Drug metabolism assessed as human CYP3A5-mediated (R)-1-(4-(4-fluoro-2-(hydroxymethyl)-1H-indol-5-yloxy)-5-methylpyrrolo[1,2-f][1,2,4]triazin-6-yloxy)propan-2-ol formation at 2 and 20 uM for 20 mins by LC/MS analysis in presence of NADPH; conditions: recombinant enzyme
Cytochrome P450 2C9 [3] = target: T3, Cytochrome P450 2C9 (Homo sapiens, UniProt P11712); assay: Drug metabolism assessed as human CYP2C9-mediated (R)-1-(4-(4-fluoro-2-(hydroxymethyl)-1H-indol-5-yloxy)-5-methylpyrrolo[1,2-f][1,2,4]triazin-6-yloxy)propan-2-ol formation at 2 and 20 uM for 20 mins by LC/MS analysis in presence of NADPH; conditions: recombinant enzyme
[4] = Activity of CYP3A4/CYP1A2 in human liver microsomes assessed as enzyme-mediated (R)-1-(4-(4-fluoro-2-(hydroxymethyl)-1H-indol-5-yloxy)-5-methylpyrrolo[1,2-f][1,2,4]triazin-6-yloxy)propan-2-ol formation in presence of NADPH
[5] = Activity of CYP3A4/CYP1A2 in human liver microsomes assessed as intrinsic clearance for enzyme-mediated (R)-1-(4-(4-fluoro-2-(hydroxymethyl)-1H-indol-5-yloxy)-5-methylpyrrolo[1,2-f][1,2,4]triazin-6-yloxy)propan-2-ol formation per mg protein in presence of NADPH
Cytochrome P450 3A4 [6] = target: T2, Cytochrome P450 3A4; assay: Activity of human CYP3A4 assessed as intrinsic clearance for enzyme-mediated (R)-1-(4-(4-fluoro-2-(hydroxymethyl)-1H-indol-5-yloxy)-5-methylpyrrolo[1,2-f][1,2,4]triazin-6-yloxy)propan-2-ol formation per picomole enzyme in presence of NADPH
Liver microsome [7] = assay: Drug level in human liver microsomes assessed as compound formation treated with 2 uM [14C]brivanib alaninate for 60 mins by LC/MS analysis in presence of NADPH; conditions: 1 h
Liver microsome [8] = assay: Drug metabolism in human liver microsomes assessed as (R)-1-(4-(4-fluoro-2-(hydroxymethyl)-1H-indol-5-yloxy)-5-methylpyrrolo[1,2-f][1,2,4]triazin-6-yloxy)propan-2-ol formation at 2 and 20 uM for 30 mins by LC/MS analysis in presence of antibody for CYP1A2; conditions: 0.5 h
Sulfotransferase 1A1 = Sulfotransferase 1A1 (Homo sapiens, UniProt P50225); assay: Drug metabolism assessed as human SULT1A1-mediated (R)-1-(4-(4-fluoro-2-methyl-1H-indol-5-yloxy)-5-methylpyrrolo[1,2-f][1,2,4]triazin-6-yloxy)propane-2-sulfonic acid formation at 2 and 20 uM for 30 mins by LC/MS analysis in presence of PAPS; conditions: 0.5 h
Sulfotransferase 2A1 = Sulfotransferase 2A1 (Homo sapiens, UniProt Q06520); assay: Drug metabolism assessed as human SULT2A1-mediated (R)-1-(4-(4-fluoro-2-methyl-1H-indol-5-yloxy)-5-methylpyrrolo[1,2-f][1,2,4]triazin-6-yloxy)propane-2-sulfonic acid formation at 2 and 20 uM for 30 mins by LC/MS analysis in presence of PAPS; conditions: 0.5 h
Sulfotransferase 1E1 = Sulfotransferase 1E1 (Homo sapiens, UniProt P49888); assay: Drug metabolism assessed as human SULT1E1-mediated (R)-1-(4-(4-fluoro-2-methyl-1H-indol-5-yloxy)-5-methylpyrrolo[1,2-f][1,2,4]triazin-6-yloxy)propane-2-sulfonic acid formation at 2 and 20 uM for 30 mins by LC/MS analysis in presence of PAPS; conditions: 0.5 h
Cytochrome P450 2B6 = target: T4, Cytochrome P450 2B6 (Homo sapiens, UniProt P20813); assay: Drug metabolism in human liver microsomes assessed as monoclonal antibody-mediated inhibition of CYP2B6-mediated (R)-1-(4-(4-fluoro-2-(hydroxymethyl)-1H-indol-5-yloxy)-5-methylpyrrolo[1,2-f][1,2,4]triazin-6-yloxy)propan-2-ol formation at 2 and 20 uM for 30 mins by LC/MS analysis; conditions: 0.5 h
T4 sequence (P20813 whole entry): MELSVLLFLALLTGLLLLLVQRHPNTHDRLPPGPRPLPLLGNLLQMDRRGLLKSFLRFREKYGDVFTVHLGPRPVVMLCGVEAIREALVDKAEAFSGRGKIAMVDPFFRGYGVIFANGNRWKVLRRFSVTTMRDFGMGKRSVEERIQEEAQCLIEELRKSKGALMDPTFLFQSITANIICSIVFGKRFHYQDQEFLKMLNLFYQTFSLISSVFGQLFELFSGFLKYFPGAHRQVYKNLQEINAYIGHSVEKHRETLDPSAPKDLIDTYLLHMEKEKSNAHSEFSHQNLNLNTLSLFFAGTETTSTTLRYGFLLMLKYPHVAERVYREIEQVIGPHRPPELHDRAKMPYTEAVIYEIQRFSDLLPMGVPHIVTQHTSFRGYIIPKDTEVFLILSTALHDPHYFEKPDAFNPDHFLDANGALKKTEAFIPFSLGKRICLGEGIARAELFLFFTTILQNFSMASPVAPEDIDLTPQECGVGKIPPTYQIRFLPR

Cytochrome P450 2C9 [9] = target: T3, Cytochrome P450 2C9; assay: Drug metabolism in human liver microsomes assessed as monoclonal antibody-mediated inhibition of CYP2C9-mediated (R)-1-(4-(4-fluoro-2-(hydroxymethyl)-1H-indol-5-yloxy)-5-methylpyrrolo[1,2-f][1,2,4]triazin-6-yloxy)propan-2-ol formation at 2 and 20 uM for 30 mins by LC/MS analysis; conditions: 0.5 h
Cytochrome P450 2C19 = Cytochrome P450 2C19 (Homo sapiens, UniProt P33261); assay: Drug metabolism in human liver microsomes assessed as monoclonal antibody-mediated inhibition of CYP2C19-mediated (R)-1-(4-(4-fluoro-2-(hydroxymethyl)-1H-indol-5-yloxy)-5-methylpyrrolo[1,2-f][1,2,4]triazin-6-yloxy)propan-2-ol formation at 2 and 20 uM for 30 mins by LC/MS analysis; conditions: 0.5 h
Cytochrome P450 2E1 [10] = target: T1, Cytochrome P450 2E1; assay: Drug metabolism in human liver microsomes assessed as monoclonal antibody-mediated inhibition of CYP2E1-mediated (R)-1-(4-(4-fluoro-2-(hydroxymethyl)-1H-indol-5-yloxy)-5-methylpyrrolo[1,2-f][1,2,4]triazin-6-yloxy)propan-2-ol formation at 2 and 20 uM for 30 mins by LC/MS analysis; conditions: 0.5 h

T2 sequence (P08684 whole entry): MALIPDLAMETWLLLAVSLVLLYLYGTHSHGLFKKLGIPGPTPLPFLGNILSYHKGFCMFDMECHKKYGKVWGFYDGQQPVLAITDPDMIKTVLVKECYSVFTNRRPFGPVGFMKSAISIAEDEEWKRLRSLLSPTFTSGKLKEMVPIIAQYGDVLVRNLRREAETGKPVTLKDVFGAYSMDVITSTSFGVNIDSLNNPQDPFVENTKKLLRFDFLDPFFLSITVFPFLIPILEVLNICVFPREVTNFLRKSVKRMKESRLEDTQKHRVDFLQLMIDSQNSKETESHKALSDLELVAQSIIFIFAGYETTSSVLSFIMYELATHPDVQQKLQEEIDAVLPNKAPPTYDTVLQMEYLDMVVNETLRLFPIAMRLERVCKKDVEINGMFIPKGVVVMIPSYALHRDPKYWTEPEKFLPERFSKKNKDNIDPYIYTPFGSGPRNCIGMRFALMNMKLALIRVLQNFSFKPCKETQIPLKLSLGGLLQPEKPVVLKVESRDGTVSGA
T1 sequence (P05181 whole entry): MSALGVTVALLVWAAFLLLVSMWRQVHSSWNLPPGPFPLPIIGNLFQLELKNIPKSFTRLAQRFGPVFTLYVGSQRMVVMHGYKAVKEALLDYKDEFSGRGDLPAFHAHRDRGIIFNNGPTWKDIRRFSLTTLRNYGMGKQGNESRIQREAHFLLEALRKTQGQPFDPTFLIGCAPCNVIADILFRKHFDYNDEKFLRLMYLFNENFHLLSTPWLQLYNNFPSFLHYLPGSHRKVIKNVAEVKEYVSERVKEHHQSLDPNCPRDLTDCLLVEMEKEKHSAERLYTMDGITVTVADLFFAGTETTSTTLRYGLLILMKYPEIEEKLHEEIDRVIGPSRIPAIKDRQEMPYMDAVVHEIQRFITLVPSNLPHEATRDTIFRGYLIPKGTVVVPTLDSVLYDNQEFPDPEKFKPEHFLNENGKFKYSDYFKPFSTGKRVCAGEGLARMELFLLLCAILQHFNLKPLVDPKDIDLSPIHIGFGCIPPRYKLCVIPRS
T3 sequence (P11712 whole entry): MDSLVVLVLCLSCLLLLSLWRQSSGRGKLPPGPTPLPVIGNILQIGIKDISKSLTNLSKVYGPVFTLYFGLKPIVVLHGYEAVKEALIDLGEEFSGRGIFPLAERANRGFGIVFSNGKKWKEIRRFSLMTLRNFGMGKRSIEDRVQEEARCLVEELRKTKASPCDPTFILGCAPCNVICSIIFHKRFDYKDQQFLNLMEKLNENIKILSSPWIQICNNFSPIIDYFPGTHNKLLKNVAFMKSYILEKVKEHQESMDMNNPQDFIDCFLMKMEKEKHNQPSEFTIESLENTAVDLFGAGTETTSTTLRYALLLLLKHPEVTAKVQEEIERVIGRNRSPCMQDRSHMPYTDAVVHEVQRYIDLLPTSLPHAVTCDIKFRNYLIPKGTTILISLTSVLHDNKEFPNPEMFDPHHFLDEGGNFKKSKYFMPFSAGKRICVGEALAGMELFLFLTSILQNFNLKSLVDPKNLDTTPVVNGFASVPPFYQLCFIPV
Chain of Cytochrome P450 3A5 (P20815 whole entry): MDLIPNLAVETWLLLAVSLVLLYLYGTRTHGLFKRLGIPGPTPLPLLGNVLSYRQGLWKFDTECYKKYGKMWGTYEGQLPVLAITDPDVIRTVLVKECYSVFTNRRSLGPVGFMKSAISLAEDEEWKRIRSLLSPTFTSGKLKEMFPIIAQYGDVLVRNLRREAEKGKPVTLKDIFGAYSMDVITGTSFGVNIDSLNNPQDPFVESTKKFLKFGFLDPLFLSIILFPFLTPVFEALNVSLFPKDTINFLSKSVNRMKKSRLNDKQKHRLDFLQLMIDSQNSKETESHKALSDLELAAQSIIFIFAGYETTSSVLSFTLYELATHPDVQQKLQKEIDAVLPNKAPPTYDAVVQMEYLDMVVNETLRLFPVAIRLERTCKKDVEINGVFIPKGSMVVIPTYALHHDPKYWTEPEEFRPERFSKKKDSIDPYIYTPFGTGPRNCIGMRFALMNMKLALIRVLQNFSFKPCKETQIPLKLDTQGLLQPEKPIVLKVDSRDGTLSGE
Chain of Cytochrome P450 2C19 (P33261 whole entry): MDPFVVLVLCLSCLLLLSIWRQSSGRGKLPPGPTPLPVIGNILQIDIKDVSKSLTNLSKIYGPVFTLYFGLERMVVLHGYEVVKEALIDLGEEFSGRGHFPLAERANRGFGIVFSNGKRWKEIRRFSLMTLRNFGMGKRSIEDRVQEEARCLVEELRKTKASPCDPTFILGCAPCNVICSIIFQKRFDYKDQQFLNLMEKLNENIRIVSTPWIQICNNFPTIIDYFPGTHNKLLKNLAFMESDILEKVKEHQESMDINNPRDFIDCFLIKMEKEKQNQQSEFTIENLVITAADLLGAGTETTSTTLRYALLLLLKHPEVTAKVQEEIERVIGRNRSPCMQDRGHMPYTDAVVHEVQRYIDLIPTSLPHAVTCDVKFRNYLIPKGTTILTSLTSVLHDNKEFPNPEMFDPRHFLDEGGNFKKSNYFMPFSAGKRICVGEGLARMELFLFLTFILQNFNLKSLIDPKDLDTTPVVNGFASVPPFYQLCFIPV
Chain of Sulfotransferase 1A1 (P50225 whole entry): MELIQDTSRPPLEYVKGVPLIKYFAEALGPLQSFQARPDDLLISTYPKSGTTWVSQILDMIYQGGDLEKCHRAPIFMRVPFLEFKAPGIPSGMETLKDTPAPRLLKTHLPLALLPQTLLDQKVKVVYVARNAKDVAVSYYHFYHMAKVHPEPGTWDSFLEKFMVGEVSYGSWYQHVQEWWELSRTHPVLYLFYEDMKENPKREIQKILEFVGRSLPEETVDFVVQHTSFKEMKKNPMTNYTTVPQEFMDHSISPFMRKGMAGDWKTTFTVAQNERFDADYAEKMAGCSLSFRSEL
Chain of Sulfotransferase 1E1 (P49888 whole entry): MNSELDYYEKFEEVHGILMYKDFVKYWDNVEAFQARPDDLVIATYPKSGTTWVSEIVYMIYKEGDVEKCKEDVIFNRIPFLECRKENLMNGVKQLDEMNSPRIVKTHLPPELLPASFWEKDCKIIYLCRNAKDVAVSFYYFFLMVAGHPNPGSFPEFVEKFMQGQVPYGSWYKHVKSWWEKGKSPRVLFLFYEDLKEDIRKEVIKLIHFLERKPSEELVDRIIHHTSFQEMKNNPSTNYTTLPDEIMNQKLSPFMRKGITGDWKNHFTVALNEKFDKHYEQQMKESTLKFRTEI
Chain of Sulfotransferase 2A1 (Q06520 whole entry): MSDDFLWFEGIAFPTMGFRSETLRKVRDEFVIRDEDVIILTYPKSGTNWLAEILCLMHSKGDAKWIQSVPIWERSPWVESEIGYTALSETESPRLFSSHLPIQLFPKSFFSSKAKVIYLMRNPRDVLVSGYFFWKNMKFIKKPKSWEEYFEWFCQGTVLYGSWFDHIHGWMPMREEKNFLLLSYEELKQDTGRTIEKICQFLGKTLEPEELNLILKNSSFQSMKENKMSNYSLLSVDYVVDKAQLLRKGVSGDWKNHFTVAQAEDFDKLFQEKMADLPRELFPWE

Drug metabolism (Cytochrome P450 2E1 [1]): metabolite_detected | Drug metabolism (Cytochrome P450 3A4 [2]): metabolite_detected | Drug metabolism (Cytochrome P450 3A5): metabolite_detected | Drug metabolism (Cytochrome P450 2C9 [3]): metabolite_detected | Km [4]: 29.1 µM | CLint [5]: 3.1 µL/min/mg | CL (Cytochrome P450 3A4 [6]): 0.016 µL/min | Drug metabolism (Liver microsome [7]): metabolite_detected | Drug metabolism (Liver microsome [8]): metabolite_not_detected | Drug metabolism (Sulfotransferase 1A1): metabolite_detected | Drug metabolism (Sulfotransferase 2A1): metabolite_detected | Drug metabolism (Sulfotransferase 1E1): metabolite_detected | Drug metabolism (Cytochrome P450 2B6): metabolite_detected | Drug metabolism (Cytochrome P450 2C9 [9]): metabolite_detected | Drug metabolism (Cytochrome P450 2C19): metabolite_detected | Drug metabolism (Cytochrome P450 2E1 [10]): metabolite_detected
Structure (SMILES): Cc1cc2c(F)c(Oc3ncnn4cc(OC[C@@H](C)O)c(C)c34)ccc2[nH]1 [BRIVANIB]
